The OPERA property sets (Mansouri et al. 2018)

SMILES	logP
CN(C)/N=N/c1ccccc1CO	1.73
CCc1ccccc1-c1nc(N)nc(N)n1	1.65
CC(=O)O[C@]1(C(C)=O)CC[C@H]2[C@@H]3C[C@H](C)C4=CC(=O)C=C[C@]4(C)[C@@]3(F)[C@@H](O)C[C@@]21C	1.5
COP(=S)(OC)Oc1cc(Cl)c(Br)cc1Cl	5.21
CSc1cccc(OCC(=O)O)c1	1.9
CNC(C)=O	-1.05
C1COCCO1	-0.27
CSc1ccc2ccccc2n1	3.04
c1cncc([C@@H]2CCCN2)c1	0.17
COc1cc2c(c(OC)c1O)-c1ccc(OC)c(=O)cc1[C@@H](NC(C)=O)CC2	0.48
Oc1cccc(F)c1	1.93
O=[N+]([O-])c1cnc(NC(CO)C(O)CO)cn1 (stereo unspecified)	-0.89
O=C(O)c1ccc(Oc2ccccc2)cc1	3.91
FC(F)(F)c1ccccc1	3.01
CCOC(=O)CC(=O)c1ccccc1	1.87
COC(=O)CNC(=O)c1ccc([N+](=O)[O-])cc1	0.98
NC(=O)Cc1ccccn1	-0.65
CCOc1ccc(S(I)=C(N(C)C)N(C)C)cc1 (stereo unspecified)	-0.06
COc1ccc(CN(CCN(C)C)c2ccccn2)cc1	3.27
CN(C(=O)c1ccccc1)c1ccccc1	2.36
Cc1cnc2ccccc2n1	1.61
CC(=O)NC(CO)C(O)c1ccc([N+](=O)[O-])cc1 (stereo unspecified)	-0.03
c1ccc2cnncc2c1	0.57

SMILES	logP
CN(C)c1ccc(C#N)cc1	2.2
CC(=O)OCc1ccc(C)cc1	2.44
Cc1cc[nH]c(=O)n1	-1.45
CC1=CC(=O)C=C(Br)C1=O	1.21
CSCS(=O)CC(CO)NC(=O)C=Cc1c(C)[nH]c(=O)[nH]c1=O (stereo unspecified)	-1.71
CNC(=O)Oc1cccc(C)c1C	1.95
NCc1ccco1	0.37
O=[N+]([O-])c1ccc2ncccc2c1	1.84
CC(=O)c1cccc(O)c1	1.39
C[C@]12CC[C@@H]3c4ccc(O)cc4CC[C@H]3[C@@H]1C[C@@H](O)[C@@H]2O	2.45
Nc1ccc(-c2ccc(N)cc2)cc1	1.34
CCCC(O)CCC	2.22
CCCCOc1cccc(C=C(C(=O)OCC)C(=O)OCC)c1	4.03
Cn1cc(C(=O)O)c2ccccc21	2
CCSCCSP(=O)(OC)OC	1.02
CC(C)OCCO	0.05
CCCCCCCC(=O)OCC(=O)C1(O)CCC2C3CCC4=CC(=O)CCC4(C)C3C(O)CC21C (stereo unspecified)	5.49
COC(=O)[C@@H]1C2CCC(C[C@@H]1OC(=O)c1ccccc1)N2C (stereo partly specified)	2.3
CCc1cc(OP(=S)(OC)OC)ccc1[N+](=O)[O-]	3.74
NNP(=O)(Oc1ccccc1)Oc1ccccc1	1.51
O=C(O)c1ccccn1	0.72
O=[N+]([O-])c1ccc(O)c2ncccc12	1.99
CC(=O)Nc1cccc2ncccc12	0.71

SMILES	logP
CC1NC(=O)C(CC(=O)NC(Cc2c[nH]c3ccccc23)C(=O)NC(Cc2ccccc2)C(=O)N(C)Cc2ccccc2)NC1=O (stereo unspecified)	3.18
CCCCC(NC(Cc1ccccc1)C(=O)N1CCC(OCOC)CC1)C(=O)NC(CC1CCCCC1)C(O)CC(C(=O)NCCNc1noc(N)n1)C(C)C (stereo unspecified)	4.11
OCC(O)c1ccc(O)c(O)c1 (stereo unspecified)	-1.01
CC(=O)OCC(=O)[C@@]1(O)CC[C@H]2[C@@H]3CCC4=CC(=O)C=C[C@]4(C)[C@H]3[C@@H](O)C[C@@]21C	2.4
CNC(=O)Oc1ccc(C(=O)OC)cc1	1.5
CC12CCC3C(CCC4(O)CC(O)CCC34C=O)C1(O)CCC2C1=CC(=O)OC1 (stereo unspecified)	0.64
O=C(O)c1ccc(Cl)cc1[N+](=O)[O-]	2.08
OCC(Cl)Cl	0.37
CCCN(CC)C(CC)C(=O)Nc1c(C)cccc1C (stereo unspecified)	3.69
O=C(COC(=O)c1ccccc1)NC1CCCCC1	2.81
CC(C)(C)C(=O)C(Oc1ccc(Cl)cc1)n1cncn1 (stereo unspecified)	2.77
N#Cc1c[nH]c(=O)[nH]c1=O	-0.93
C=C(Cl)Cl	2.13
CCCCCCN(C)N=Nc1ccc(C(N)=O)cc1	3.69
CCn1nnc2ccccc21	1.58
CCI	2
CN(C)c1ccc(C(=O)c2ccc(N(C)C)cc2)cc1	3.87
CCOC(=O)[C@H](CCc1ccccc1)N[C@@H](C)C(=O)N1CCC[C@H]1C(=O)O	0.07
CCCOC(C)=O	1.24
CCCCS	2.28
c1cncc([C@@H]2CCCCN2)c1	0.97
Cn1cnc([N+](=O)[O-])c1Sc1ncnc2nc[nH]c12	0.1
COP(=S)(OC)Oc1ccc([N+](=O)[O-])cc1Cl	3.58

SMILES	logP
Cn1nnc2ccccc2c1=O	0.84
CCOP(=O)(OCC)Oc1ccccc1	1.64
NNC(=O)c1ccncc1	-0.7
C=CCC1(CC)C(=O)NC(=O)N(C)C1=O (stereo unspecified)	1.35
O=C1CC(OC(=O)c2ccccc2)N1 (stereo unspecified)	1.37
Clc1ccc(-c2cc(Cl)c(Cl)cc2Cl)cc1Cl	7.12
Nc1ccc(Cl)cc1	1.83
O=c1cc(-c2ccccc2)o[nH]1	2.55
Cc1cccc2cccc(C)c12	4.26
O=C1CCC(=O)N1c1ccc(Br)cc1	1.18
CN(C)CCCc1ccccc1	2.73
COc1cc(CCN)cc(OC)c1OC(C)C	1.52
CCCCNC(=O)NO	0.32
Cc1[nH]cnc1CSCCNC(=N)NCCSCc1nc[nH]c1C	1.34
CNCc1ccccc1	1.52
N#CSCc1ccccc1	1.99
NS(=O)(=O)c1ccc(S(=O)(=O)CCO)s1	-0.54
Nc1ccc(S(=O)(=O)Nc2ccccc2)cc1	1.55
O=[N+]([O-])c1cccc(F)c1	1.9
CNC(=O)Oc1cccc(Br)c1	2.25
CCNc1nc(NC(C)C)nc(SC)n1	2.98
CN(C)CCN1C(=O)c2ccccc2N(C)c2ccccc21	2.5
COC(COC(N)=O)C1=C(N2CC2)C(=O)C(C)=C(N2CC2)C1=O (stereo unspecified)	-0.15

SMILES	logP
NC(Cc1ccccc1)C(=O)OCn1ncc2c(=O)[nH]cnc21 (stereo unspecified)	0.4
FCCCc1ccccc1	2.95
CN(C)CC/C=C1\c2ccccc2Sc2ccc(Cl)cc21	5.18
CC(=O)CCC(C)=O	-0.27
CC(NNC(=O)COc1ccccc1)c1ccccc1 (stereo unspecified)	2.46
NCCc1ccccc1	1.41
Nc1ccccc1-c1ccccc1	2.84
FC(F)(F)C(Cl)Br (stereo unspecified)	2.3
OCCN1CCN(CCC=C2c3ccccc3Sc3ccc(C(F)(F)F)cc32)CC1	4.51
CN1CCOCC1	-0.33
CCOC(=O)CON=Cc1ccc(OCC(=O)OCC)c(OC)c1	1.87
NC(Cc1c[nH]c2cccc(F)c12)C(=O)O (stereo unspecified)	-1.07
O=C1CCCCCCN1	0.24
CCCC(=O)OC	1.29
CC1(C)N=C(N)N=C(N)N1c1ccc(Br)cc1	1.09
C1CCNC1	0.46
Cc1ccc2nc(N)[nH]c2c1	1.11
CC(=O)NC(C)C(=O)NC(C)C(=O)NC(C)C(=O)NC(C)(C)C (stereo unspecified)	-0.51
Nc1ccccc1[N+](=O)[O-]	1.85
CON=C(C(=O)NC1C(=O)N2C(C(=O)OC(C)OC(C)=O)=C(COC(N)=O)CSC12)c1ccco1 (stereo unspecified)	0.89
COc1ccc(C(O)C(C(=O)O)c2ccc(-c3ccccc3)cc2)cc1 (stereo unspecified)	3.59
O=C1NC(=O)[C@@]2(CCOc3ccc(F)cc32)N1	0.78
c1ccc2c(c1)CCO2	2.14

SMILES	logP
CCCCOc1ccc(C(N)=O)cc1	2.48
CC(C)CC(=O)NN	-0.31
Nc1nc(N)nc(-c2ccc([N+](=O)[O-])cc2)n1	1.6
COc1cccc(C(N)=O)c1	0.85
CCn1c(=O)c2[nH]c(-c3ccccc3)nc2n(CC)c1=O	2.93
CCOc1ccc2cc[nH]c2c1	2.53
COC(=O)c1ccccc1S(I)=C(N(C)C)N(C)C (stereo unspecified)	-0.7
Nc1ncc(Cc2ccccc2)c(N)n1	1.58
Fc1cccc(C2CNCCO2)c1 (stereo unspecified)	1.42
CN(C)C(N(C)C)=S(I)c1cccc(I)c1 (stereo unspecified)	0.29
CC(Oc1cc(Cl)c(Cl)cc1Cl)C(=O)O (stereo unspecified)	3.8
CCC12CC3CC(CC(N)(C3)C1)C2	3.4
COC(=O)COc1ccccc1C	2.08
O=C(O)C(c1ccc(Cl)cc1)n1cccc1 (stereo unspecified)	2.3
CC/C(=C\c1ccccc1)[N+](=O)[O-]	2.86
O=[N+]([O-])c1ccccc1SSc1ccccc1[N+](=O)[O-]	3.37
O=C(O)C1Cc2cc(Cl)ccc2O1 (stereo unspecified)	2.11
C#C	0.37
CN(C)CCN1c2ccccc2Sc2ccccc21	4.2
CCCC[SiH](C)C	3.57
O=C(O)c1cc(I)cc(I)c1O	4.56
CC(=O)c1ccccc1S(I)=C(N(C)C)N(C)C (stereo unspecified)	-0.81
N#Cc1ccc2ccccc2n1	1.6

SMILES	logP
CC(C)(CCC(=O)O)C(=O)O	0.67
NC(=O)c1cccc2[nH]ccc12	0.66
CC(=O)NC1=CC(=O)c2ccccc2C1=O	1.29
Cc1ccc(C(N)=O)cc1	1.18
CNC(=O)Oc1cc(C)cc(C(C)C)c1	3.1
Cc1cccc(C2CNCCO2)c1 (stereo unspecified)	1.52
COc1cccc(C(=O)NN)c1	0.4
O=[N+]([O-])c1cc(Br)c(O)c(Br)c1	3.57
CCC1(CC)C(=O)NC(=O)N(C(C)C)C1=O	2.36
O=C(Nc1ccccc1)NC1CCCCC1	2.77
O=C(O)COc1ccc2c(c1)CCC2	2.33
O=C(O)Cc1ccccc1F	1.5
Cc1ccc(C)[nH]1	1.47
Nc1cc[nH]c(=O)n1	-1.73
Nc1cccc2cc3ccccc3nc12	3.26
Cc1ccccc1OCC(=O)NNC(C)C	1.83
CC(C)c1ccc(OCC(=O)O)cc1	2.69
Cc1[nH]cnc1CSCCNC1=NS(=O)(=O)CCN1	-0.74
COc1ccc(C)cc1N	1.74
O=C(O)Cc1cccc(F)c1	1.65
CCc1ccccc1OCC(=O)O	2.53
Nc1cc(Cl)c(Cl)cc1N	2
C=C(C)[C@H]1Cc2c(ccc3c2O[C@@H]2COc4cc(OC)c(OC)cc4[C@@H]2C3=O)O1	4.1
